The values below are quoted from earlier work in PubChem BioAssay AID1259409 (Chemical Carcinogenesis Research Information System (CCRIS), 2018).

This data set relates to rodent chemically induced tumor inhibition, incidence and multiplicity. Put plainly: CCRIS tumor inhibitor studies. The conditions noted are these: Route [Inhibitor]: ORAL, Species: RAT; for tumour outcome (control, treated, inhibition, significance): Promoter: NONE USED.

Structures are written as SMILES.

Consider `CC(=O)OC/C=C(C)/C=C/C=C(C)/C=C/C1=C(C)CCCC1(C)C`, for which the outcome (Carcinogen: N-BIS-(2-HYDROXYPROPYL)NITROSAMINE [53609-64-6], Dose [Inhibitor]: 0, 0.1% IN DIET 4 WK BEGINNING 1 WK POST CARCINOGEN DOSE (STUDY DURATION: 5 WK), Strain/Sex: F344/DUCRJ/MALE, Target Tissue: Type of Lesion: THYROID GLAND: ADENOMATOUS GROWTH PATTERN, Dose [Carcinogen]: 2800 MG/KG BW ONCE (STUDY DURATION: 5 WK), Promoter: NONE) is reported as 0%, 0%, 0%, not significant. For the same molecule, the “tumour outcome (control, treated, inhibition, significance)” value is reported as 100%, 73%, 27%, p<0.05 (Carcinogen: N-METHYL-N-NITROSOUREA, 684-93-5, Dose [Inhibitor]: 0, 328 MG/KG DIET FOR 88 D BEGINNING 2 D POST CARCINOGEN DOSE (STUDY DURATION: 90 D), Strain/Sex: SPRAGUE-DAWLEY/FEMALE, Target Tissue: Type of Lesion: MAMMARY GLAND: ADENOCARCINOMA, Dose [Carcinogen]: 45 MG/KG BW ONCE); 100%, 80%, 20%, not calculated (Carcinogen: N-METHYL-N-NITROSOUREA, 684-93-5, Dose [Inhibitor]: 0, 328 MG/KG OF DIET BEGINNING 2 D POST CARCINOGEN DOSE AND CONTINUING FOR DURATION OF STUDY (STUDY DURATION: 90 D), Strain/Sex: SPRAGUE-DAWLEY/FEMALE, Target Tissue: Type of Lesion: MAMMARY GLAND: ADENOCARCINOMA, Dose [Carcinogen]: 45 MG/KG BW ONCE AT 50 D OF AGE); 100%, 84%, 16%, not significant (Carcinogen: N-METHYL-N-NITROSOUREA, 684-93-5, Dose [Inhibitor]: 0, 328 MG/KG OF DIET FOR DURATION OF STUDY BEGINNING 1 WK PRIOR TO CARCINOGEN TREATMENT (STUDY DURATION: 117 D), Strain/Sex: SPRAGUE-DAWLEY /FEMALE, Target Tissue: Type of Lesion: MAMMARY GLAND: ADENOCARCINOMA, Dose [Carcinogen]: 50 MG/KG BW ONCE); 5/39 (13%), 4/29 (14%), -8%, not significant (Carcinogen: N-METHYL-N-NITROSOUREA, 684-93-5, Dose [Inhibitor]: 0.8 MMOL/KG DIET DAILY STARTING 12 D AFTER CARCINOGEN TREATMENT THROUGH ABOUT 8 MO AFTER FIRST CARCINOGEN DOSE (STUDY DU, Strain/Sex: F344/MALE, Target Tissue: Type of Lesion: COLON: ADENOCARCINOMA, Dose [Carcinogen]: 2.5 MG 1/WK FOR 2 WK); 16/39 (41%), 9/29 (31%), 24%, not significant (Carcinogen: N-METHYL-N-NITROSOUREA, 684-93-5, Dose [Inhibitor]: 0.8 MMOL/KG DIET DAILY STARTING 12 D AFTER CARCINOGEN TREATMENT THROUGH ABOUT 8 MO AFTER FIRST CARCINOGEN DOSE (STUDY DU, Strain/Sex: F344/MALE, Target Tissue: Type of Lesion: COLON: ADENOMA, Dose [Carcinogen]: 2.5 MG 1/WK FOR 2 WK); 87%, 54%, 38%, p<0.01 (Carcinogen: N-METHYL-N-NITROSOUREA, 684-93-5, Dose [Inhibitor]: 1.0 MM IN DIET DAILY (328 MG/KG DIET) STARTING D 60 OF AGE UNTIL END OF STUDY (STUDY DURATION: 4 MO), Strain/Sex: SPRAGUE-DAWLEY/FEMALE, Target Tissue: Type of Lesion: MAMMARY GLAND: CARCINOMA, Dose [Carcinogen]: 2.5 MG/100 G BODY WEIGHT IN 0.9% NACL SOLUTION ADMINISTERED AT D 50 AND 57 OF AGE). The “tumour outcome (control, treated, inhibition, significance)” value (Carcinogen: N-METHYL-N-NITROSOUREA, 684-93-5, Dose [Inhibitor]: 1 MMOL/KG DIET DAILY STARTING 3 D AFTER LAST CARCINOGEN DOSE THROUGH END OF STUDY (STUDY DURATION: 129 D), Strain/Sex: SPRAGUE-DAWLEY/FEMALE, Target Tissue: Type of Lesion: MAMMARY GLAND: TUMOR, Dose [Carcinogen]: 50 MG/KG BW AT BOTH 50 AND 57 D OF AGE) is recorded as 17/17 (100%), 12/18 (67%), 33%, p<0.001; the “tumour outcome (control, treated, inhibition, significance)” value (Carcinogen: N-METHYL-N-NITROSOUREA, 684-93-5, Dose [Inhibitor]: 1 MMOL/KG DIET DAILY STARTING 3 D AFTER LAST CARCINOGEN DOSE THROUGH END OF STUDY (STUDY DURATION: 182 D), Strain/Sex: SPRAGUE-DAWLEY/FEMALE, Target Tissue: Type of Lesion: MAMMARY GLAND: TUMOR, Dose [Carcinogen]: 15 MG/KG BW AT BOTH 50 AND 57 D OF AGE) is 12/40 (30%), 5/39 (13%), 57%, not significant; the “tumour outcome (control, treated, inhibition, significance)” value (Carcinogen: N-METHYL-N-NITROSOUREA, 684-93-5, Dose [Inhibitor]: 2 MMOL/KG DIET DAILY STARTING 3 D AFTER LAST CARCINOGEN DOSE THROUGH END OF STUDY (STUDY DURATION: 129 D), Strain/Sex: SPRAGUE-DAWLEY/FEMALE, Target Tissue: Type of Lesion: MAMMARY GLAND: TUMOR, Dose [Carcinogen]: 50 MG/KG BW AT BOTH 50 AND 57 D OF AGE) was 17/17 (100%), 2/16 (13%), 87%, p<0.001; the “tumour outcome (control, treated, inhibition, significance)” value (Carcinogen: N-METHYL-N-NITROSOUREA, 684-93-5, Dose [Inhibitor]: 2 MMOL/KG DIET DAILY STARTING 3 D AFTER LAST CARCINOGEN DOSE THROUGH END OF STUDY (STUDY DURATION: 182 D), Strain/Sex: SPRAGUE-DAWLEY/FEMALE, Target Tissue: Type of Lesion: MAMMARY GLAND: TUMOR, Dose [Carcinogen]: 15 MG/KG BW AT BOTH 50 AND 57 D OF AGE) was 12/40 (30%), 0/40 (0%), 100%, p<0.001; the “tumour outcome (control, treated, inhibition, significance)” value (Carcinogen: N-METHYL-N-NITROSOUREA, 684-93-5, Dose [Inhibitor]: 300 MG/KG OF DIET DAILY STARTING 7 D AFTER CARCINOGEN TREATMENT AND CONTINUING FOR DURATION OF STUDY (STUDY DURATION: 13, Strain/Sex: SPRAGUE-DAWLEY/FEMALE, Target Tissue: Type of Lesion: MAMMARY GLAND: ADENOCARCINOMA, Dose [Carcinogen]: 50 MG/KG BW IN 0.9% SALINE ONCE AT 50 D OF AGE) was 25/25 (100%), 23/25 (92%), 8%, not significant; the “tumour outcome (control, treated, inhibition, significance)” value (Carcinogen: N-METHYL-N-NITROSOUREA, 684-93-5, Dose [Inhibitor]: 328 MG/KG DIET DAILY FOR 4 MO STARTING 10 D AFTER START OF CARCINOGEN TREATMENT AND CONTINUING FOR DURATION OF STUDY (ST, Strain/Sex: SPRAGUE-DAWLEY/FEMALE, Target Tissue: Type of Lesion: MAMMARY GLAND: ADENOCARCINOMA, Dose [Carcinogen]: 2.5 MG/100 G BW IN 0.9% SALINE AND ACIDIFIED (PH 4 TO 5) WITH ACETIC ACID AT AGES 50 AND 57 D) is 88%, 53%, 40%, p<0.01. For the same molecule, the “tumour outcome (control, treated, inhibition, significance)” value (Carcinogen: N-METHYL-N-NITROSOUREA, 684-93-5, Dose [Inhibitor]: 328 MG/KG IN DIET BEGINNING AT D 60 (STUDY DURATION: 129 D), Strain/Sex: SPRAGUE-DAWLEY/FEMALE, Target Tissue: Type of Lesion: MAMMARY GLAND: TUMOR, Dose [Carcinogen]: 2.5 MG/100 G AT 50 AND 57 D OF AGE) is 22/30 (73%), 11/30 (37%), 49%, p<0.005; the “tumour outcome (control, treated, inhibition, significance)” value (Carcinogen: N-METHYL-N-NITROSOUREA, 684-93-5, Dose [Inhibitor]: 328 MG/KG IN DIET BEGINNING AT D 60 (STUDY DURATION: 175 D), Strain/Sex: SPRAGUE-DAWLEY/FEMALE, Target Tissue: Type of Lesion: MAMMARY GLAND: TUMOR, Dose [Carcinogen]: 1.25 MG/100 G BODY WEIGHT IN 0.9% NACL SOLUTION ADMINISTERED AT D 50 AND 57 OF AGE) is 8/30 (27%), 3/30 (10%), 63%, p<0.01; the “tumour outcome (control, treated, inhibition, significance)” value (Dose [Inhibitor]: 3 UMOL/G DIET, Strain/Sex: SPRAGUE-DAWLEY/FEMALE, Target Tissue: Type of Lesion: LIVER: TUMOR, Dose [Carcinogen]: 1 PPM IN DIET) was 76%, 79%, -4%, not calculated; the “tumour outcome (control, treated, inhibition, significance)” value (Dose [Inhibitor]: 3 UMOL/G DIET, Strain/Sex: SPRAGUE-DAWLEY/MALE, Target Tissue: Type of Lesion: LIVER: TUMOR, Dose [Carcinogen]: 1 PPM IN DIET) is 89%, 88%, 1%, not calculated; the “tumour outcome (control, treated, inhibition, significance)” value (Dose [Inhibitor]: 30 UMOL/G DIET, Strain/Sex: SPRAGUE-DAWLEY/FEMALE, Target Tissue: Type of Lesion: LIVER: TUMOR, Dose [Carcinogen]: 1 PPM IN DIET) is 76%, 84%, -11%, not calculated; the “tumour outcome (control, treated, inhibition, significance)” value (Dose [Inhibitor]: 30 UMOL/G DIET, Strain/Sex: SPRAGUE-DAWLEY/MALE, Target Tissue: Type of Lesion: LIVER: TUMOR, Dose [Carcinogen]: 1 PPM IN DIET) was 89%, 92%, -3%, not calculated.
